# Assay results as given in patent US20220281835A1, “PHENOL DERIVATIVES FOR USE AS ANTIMICROBIAL, ANTIBACTERIAL, BACTERICIDE” (SPECIAL PRODUCT'S LINE S.P.A., priority 2019, published 2022).
# How the values were obtained:
# [1] = system: S. Aureus strain 1 (collection) mec a+; assay: MIC/MBC broth-dilution (micromethod), CLSI; type: cell-based; details: Staphylococcus aureus; for MBC: kills 99,9% of initial population
# From the text: (§1) Determination of Minimal Inhibitory Concentration (MIC), Minimal Bactericidal Concentration (MBC), bactericidal curves and killing rate on Gram positive and Gram negative bacteria strains, for the evaluation of the bactericidal activity of compounds of example 1 (n. 1 to 14).
# (§2) In details, phenotypic methods based on in vitro MIC and MBC determination have been performed on previously isolated bacterial strains, identified and characterized at the level of their antibiotic susceptibility profile. According to MIC and MBC data, the Killing Rate was calculated as the ratio between MBC and MIC on which basis it is possible to define the compounds tested as bactericides (killing rate=1-4), or bacteriostatic (killing rate >4).
# (§3) Preparation of the solution containing molecules: for each molecule to be tested, solutions were made as DMSO Stock, with a concentration of 2.560 mg/ml, used to test 12 dilutions with the following scalar drug concentrations: 512-256-128-64-32-16-8-4-2-1-0.5-0.25 μg/ml. The scalar dilutions were prepared directly on plates by using Mueller Hinton Broth (MHB) as a solvent.
# Bacterial suspension preparation: cryostrains preserved at −80° C. were recovered by incubation in growth medium (Brain Heart Infusion Broth, BHI) for 24-48 hours at 37° C. followed by passages in agar growth medium (Columbia Blood Agar). Colonies with less than 30 hours are suspended in MHB with the purpose to prepare a bacterial suspension with a turbidity of 0.5 MF, containing approximately 1.5×10^8 cfu/ml. This injection is additionally diluted in MHB until reaching a final concentration of 5×10^5 cfu/ml (range 3-7×10^5 cfu/ml). Identical volumes of this bacterial suspension are added on a plate, for each well containing drug scalar dilutions, to obtain a final concentration between 512 a 0.25 μg/ml. The set up of bacterial suspensions as well as the passage on slate has always been performed within 30 minutes, in order not to alter the concentration of the bacterial suspension. Simultaneously, check in broth-microdilution only with solvent (in order to exclude that the effect of growth inhibition might be due to the drug solution solvent), positive growth control in absence of DMSO and drug, and negative purity control only with injection broth are performed. As a consequence the slate is incubated at 37° C. for 24 and 48 hours in aerobes. […] The same observations are valid to evaluate 48 hours MIC. After the incubation, an equal volume of bacterial suspension from each well is plated on agar growth medium and incubated for 24-48 hours at a temperature of 37° C. in aerobes, in order to define the MBC after the incubation.
# Bacterial strains: the bactericidal and/or bacteriostatic power of the synthesized compounds can be determined by using standard reference strains such as: • 1. S. Aureus ATCC 25923 res kan, tob, res streptogramine (sga-sgb, efflux), res mupirocina (at low level), res trimetoprim; • 2. S. Aureus strain 1 (collection) mec a+, res kan tob gen, res quinolones, lincosamides, res streptogramine (sga-sgb), mlsb+sa constituent, mlsb constituent, res mupirocine (low level), res trimetoprim; • 3. S. Aureus strain 2 (collection) acquired penicillinase, res kan tob, res streptogramine (sga-sgb, efflux), res mupirocine (low level), res trimetoprim; • 4. Enterococcus faecalis ATCC 51299 (str+gen res at high level, mlsb res, simil van b res); • 5. Enterococcus faecalis strain 1 (collection) (str+kan res at high level str res at high level tetracycline res); • 6. Enterococcus faecalis strain 2 (collection) (kan res at high level); • 7. E. coli of Collection: RESISTANT to ampicilline, amox+ac clav, ampicillinr+sulbactam, cefalexine, cefuroxime, cefuroxime axetil, cefixime, cefpodoxime, cefotaxime, ceftazidime, ceftriaxone, netilmicine, tobramicine, ciprofloxcine, trim/sulfametox, esbl pos, SENSITIVE to meropenem and gentamicine, INTERMEDIATE to amikacine; • 8. 8.
# [2] = system: Enterococcus faecalis strain 2 (collection); assay: MIC/MBC broth-dilution (micromethod), CLSI; type: cell-based; details: for MBC: E. FAECALIS strain 2, kills 99,9% of initial population
# From the text: as §1
# as §2, with “Sensitivity tests have been performed in broth-dilution (micromethod) with the purpose to test the possible bacteriostatic and/or bactericidal power in different compounds, in accordance with CLSI guidelines (Clinical and Laboratory Standards Institute). In” for “In”
# as §3
# Bacterial suspension preparation: cryostrains preserved at −80° C. were recovered by incubation in growth medium (Brain Heart Infusion Broth, BHI) for 24-48 hours at 37° C. followed by passages in agar growth medium (Columbia Blood Agar). Colonies with less than 30 hours are suspended in MHB with the purpose to prepare a bacterial suspension with a turbidity of 0.5 MF, containing approximately 1.5×10^8 cfu/ml. This injection is additionally diluted in MHB until reaching a final concentration of 5×10^5 cfu/ml (range 3-7×10^5 cfu/ml). Identical volumes of this bacterial suspension are added on a plate, for each well containing drug scalar dilutions, to obtain a final concentration between 512 a 0.25 μg/ml. The set up of bacterial suspensions as well as the passage on slate has always been performed within 30 minutes, in order not to alter the concentration of the bacterial suspension. Simultaneously, check in broth-microdilution only with solvent (in order to exclude that the effect of growth inhibition might be due to the drug solution solvent), positive growth control in absence of DMSO and drug, and negative purity control only with injection broth are performed. As a consequence the slate is incubated at 37° C. for 24 and 48 hours in aerobes. The 24 hours MIC is considered as the minimum drug concentration able to inhibit bacterial growth, which makes it possible to observe the absence of bacterial growth and the absence of turbidity. The same observations are valid to evaluate 48 hours MIC. After the incubation, an equal volume of bacterial suspension from each well is plated on agar growth medium and incubated for 24-48 hours at a temperature of 37° C. in aerobes, in order to define the MBC after the incubation. The MBC is evaluated as the minimum concentration of drug able to kill the 99,9% of the initial bacterial population.
# Bacterial strains: the bactericidal and/or bacteriostatic power of the synthesized compounds can be determined by using standard reference strains such as: • 1. S. Aureus ATCC 25923 res kan, tob, res streptogramine (sga-sgb, efflux), res mupirocina (at low level), res trimetoprim; • 2. S. Aureus strain 1 (collection) mec a+, res kan tob gen, res quinolones, lincosamides, res streptogramine (sga-sgb), mlsb+sa constituent, mlsb constituent, res mupirocine (low level), res trimetoprim; • 3. S. Aureus strain 2 (collection) acquired penicillinase, res kan tob, res streptogramine (sga-sgb, efflux), res mupirocine (low level), res trimetoprim; • 4. Enterococcus faecalis ATCC 51299 (str+gen res at high level, mlsb res, simil van b res); • 5. […]
# [3] = marked *: MIC value read at 48 hours
# [4] = E. FAECALIS strain 2, marked *: MIC value read at 48 hours
# [5] = E. FAECALIS strain 2, values without asterisk
smiles,measurement,setting,value
O=C(O)/C=C/c1ccc(-c2ccc(OCC(=O)NO)c(C34CC5CC(CC(C5)C3)C4)c2)cc1 [Compound 9],MIC,[1]; values without asterisk,128 µg/mL
"O=C(O)CCc1ccc(-c2ccc(O)c(C34CC5CC(CC(C5)C3)C4)c2)cc1 [Compound 19, 3-(3′-Adamantan-1-yl-4′-hydroxybiphenyl-4-yl)propionic Acid]",MBC,[1],16 µg/mL
same,MIC,[1]; [3],8 to 16 µg/mL
same,MBC,[2],32 µg/mL
same,MIC,[2]; [4],8 to 16 µg/mL
"OCC#Cc1ccc(-c2ccc(O)c(C34CC5CC(CC(C5)C3)C4)c2)cc1 [Compound 2, 3-(adamantan-1-yl)-4′-(3-hydroxyprop-1-yn-1-yl)-[1,1′-biphenyl]-4-ol]",MBC,[1],4 µg/mL
same,MIC,[1]; values without asterisk,0.5 µg/mL
same,MBC,[2],2 to 4 µg/mL
same,MIC,[2]; [5],0.5 µg/mL
"CC(C)(C)c1cc(-c2ccc(/C=C/C(=O)O)cc2)ccc1O [Compound 6, E-3-(3′-tert-Butyl-4′-hydroxybiphenyl-4-yl)acrylic Acid]",melting point,,218 °C
same,MIC,[1]; values without asterisk,64 µg/mL
CC(Oc1ccc(-c2ccc(/C=C/C(=O)O)cc2)cc1C12CC3CC(CC(C3)C1)C2)C(=O)NO (centres unmarked) [Compound 10],MIC,[1]; values without asterisk,32 µg/mL
"O=Cc1cc(-c2ccc(/C=C/C(=O)O)cc2)cc(C23CC4CC(CC(C4)C2)C3)c1O [Compound 21, E-3-[3′-Formyl-4′-hydroxy-5′-(adamantan-1-yl)-biphenyl-4-yl]-acrylic acid]",MIC,[1]; [3],16 to 64 µg/mL
same,MIC,[2]; [4],32 to 64 µg/mL
N#C/C(=C\c1ccc(-c2ccc(O)c(C34CC5CC(CC(C5)C3)C4)c2)cc1)C(=O)O [Compound 4],MBC,[1],4 µg/mL
same,MIC,[1]; values without asterisk,2 µg/mL
same,MBC,[2],4 µg/mL
same,MIC,[2]; [4],0.5 to 1 µg/mL
"N=C(N)NCc1cc(C=CC(=O)O)ccc1-c1ccc(O)c(C23CC4CC(CC(C4)C2)C3)c1.O=C(O)C(F)(F)F [Compound 15, 3-(3′-Adamantan-1-yl-2-guanidinomethyl-4′-hydroxy-biphenyl-4-yl)-acrylic acid trifluoroacetate]",MBC,[1],32 to 64 µg/mL
same,MIC,[1]; [3],16 to 32 µg/mL
same,MBC,[2],32 to 64 µg/mL
same,MIC,[2]; [4],16 to 32 µg/mL
N#C/C=C/c1ccc(-c2ccc(O)c(C34CC5CC(CC(C5)C3)C4)c2)cc1 (mixture of isomers) [Compound 1],MBC,[1],128 µg/mL
same,MIC,[1]; [3],64 to 128 µg/mL
same,MBC,[2],128 µg/mL
same,MIC,[2]; [5],32 µg/mL
